According to patent US4489091A, “Antilipemic and anti-inflammatory compositions containing sulfonate derivatives” (Taiho Pharmaceutical Company Limited, priority 1980, dated 1984):
Read-outs that look alike come from different tables or passages of the source.

Assays:
[1] = tested on: triglycerides; test: Antilipemic effect: percent triglycerides inhibition in plasma of rats given an olive oil-cholesterol mixture; type: in vivo, male Wistar rats; details: for inhibition in vivo at 200 mg/kg: read-out: Anti-lipemic effect, TG (percent triglycerides inhibition), asterisked; for inhibition in vivo at 100 mg/kg: oral 100 mg/kg, read-out: Anti-lipemic effect, TG (percent triglycerides inhibition)
Description: (§1) The above compounds of this invention are tested by the following methods for antilipemic effect and acute toxicity. In the column of antilipemic effect in the table, the asterisked values indicate the effect achieved by orally giving 200 mg/kg of the compounds concerned, and the unmarked values, the effect attained by orally giving 100 mg/kg. In the same column, "TG" stands for percent triglycerides inhibition and "CS" percent cholesterol inhibition.
(§2) Seven-week-old male Wistar rats weighing 200 to 220 g are used, 5 rats in each group.
(§3) Each compound of the invention (100 mg or 200 mg) is dissolved in 10 ml of an olive oil-cholesterol mixture (containing 15% of cholesterol). The mixture containing the compound is orally given to the rat with a probe at a dose of 10 ml/kg. Two or 8 hours thereafter, 6 ml of whole blood is withdrawn from the descending aorta of the rat under ether anesthesia with a syringe containing heparin. The blood is centrifuged at 5° C. and 3000 r.p.m. to obtain the plasma. The plasma collected after the lapse of 2 hours is used for determining the triglycerides content, and the plasma obtained 8 hours later for determining the total cholesterol content, using a triglycerides measuring kit (trade mark "Triglycerides-B Test Wako," product of Wako Junyaku Co., Ltd., Japan) and a total cholesterol measuring kit (trade mark "Cholesterol Test Wako," product of the same), respectively. The olive oil-cholesterol mixture containing no compound is similarly given to a control group, while no treatment is conducted for a normal group. The triglycerides and total cholesterol contents in the plasma are also determined for these groups in the same manner as is the case with the test groups.
(§4) The present hyperlipidemia inhibition achieved by the present compound is given by [formula] in which A is the triglycerides (cholesterol) content of the control group, B is the triglycerides (cholesterol) content of the normal group, and C is the triglycerides (cholesterol) content of the group to which the present compound is given.

[2] = Acute toxicity; details: rat, in vivo
Text: Six-week-old male Wistar rats weighing 180 to 200 g are used, 5 rats in each group. Each compound of the invention is suspended in a 30% aqueous solution of polyethylene glycol 6000 and orally given to the rat at the dosage shown in Table 2. The animals are checked for poisoning, body weight and survival to determine the LD50 value.

[3] = tested on: cholesterol; test: Antilipemic effect: percent total cholesterol inhibition in plasma of rats given an olive oil-cholesterol mixture; type: in vivo, male Wistar rats; details: oral 100 mg/kg, plasma 8 hours after dosing, Wistar rat; read-out: Anti-lipemic effect, CS (percent cholesterol inhibition)
Description: as §1, §2, §3, §4

[4] = oral 200 mg/kg (asterisked values), plasma 2 hours after dosing, Wistar rat
[5] = plasma 2 hours after dosing, Wistar rat
[6] = oral, six-week-old male Wistar rats, suspended in 30% aqueous polyethylene glycol 6000, read-out: LD50

| Structure (SMILES) | inhibition in vivo at 200 mg/kg [1, 4] | LD50 ([2]; po) | inhibition in vivo at 100 mg/kg [1, 5] | other results |
| --- | --- | --- | --- | --- |
| CCCC(=O)COS(=O)(=O)c1cccc(C(=O)O)c1 [Compound 102] | 42% | > 3000 mg/kg | – | – |
| CCCCC(=O)COS(=O)(=O)c1ccc(C)cc1 [Compound 17] | – | > 2000 mg/kg | 61% | inhibition in vivo at 100 mg/kg [3]: 33% |
| CC(C)(C)CC(=O)COS(=O)(=O)c1ccccc1 [Compound 11] | – | > 3000 mg/kg | 80% | inhibition in vivo at 100 mg/kg [3]: 53% |
| CCCCOc1ccc(S(=O)(=O)OCC(=O)CCCC)cc1 [Compound 54] | – | > 2000 mg/kg | 48% | – |
| CCCC(=O)COS(=O)(=O)c1c(C)c(C)c(C)c(C)c1C [Compound 118] | 76% | > 3000 mg/kg | – | – |
| CCCC(=O)COS(=O)(=O)c1c(CC)cc(CC)cc1CC [Compound 114] | – | > 3000 mg/kg | 87% | inhibition in vivo at 100 mg/kg [3]: 76% |
| C=CCCC(=O)COS(=O)(=O)c1ccc(OCC)cc1 [Compound 52] | – | > 2000 mg/kg | 95% | inhibition in vivo at 100 mg/kg [3]: 97% |
| CCCC(=O)COS(=O)(=O)c1ccc(O)cc1 [Compound 59] | – | > 3000 mg/kg | 70% | – |
| Cc1cc(C)c(S(=O)(=O)OCC(=O)CC(C)(C)C)c(C)c1 [Compound 82] | – | > 3000 mg/kg | 56% | inhibition in vivo at 100 mg/kg [3]: 66% |
| CCCC(C)CC(=O)COS(=O)(=O)c1ccc(OCC)cc1 (stereo not drawn) [Compound 142] | – | > 4000 mg/kg | 47% | – |
| CCCCCCC(=O)COS(=O)(=O)c1c(C)cc(C)c(C)c1C [Compound 97] | – | > 3000 mg/kg | 55% | inhibition in vivo at 100 mg/kg [3]: 47% |
| CCCCCCCCCCCCC(=O)COS(=O)(=O)c1ccc(C)cc1 [Compound 24] | 63% | > 3000 mg/kg | – | – |
| CCC(=O)COS(=O)(=O)c1c(C)cc(C)cc1C [Compound 72] | – | > 3000 mg/kg | 91% | inhibition in vivo at 100 mg/kg [3]: 90% |
| Cc1ccc(S(=O)(=O)OCC(=O)CCC(C)C)cc1 [Compound 126] | – | > 3000 mg/kg | 61% | inhibition in vivo at 100 mg/kg [3]: 47% |
| CCCC(=O)COS(=O)(=O)c1c(C(C)C)cc(C(C)C)cc1C(C)C [Compound 115] | 67% | > 3000 mg/kg | – | – |
| CCCC(=O)COS(=O)(=O)c1ccc(OC)cc1 [Compound 34] | – | > 1500 mg/kg | 72% | inhibition in vivo at 100 mg/kg [3]: 68% |
| CCCC(=O)COS(=O)(=O)CCCOCC [Compound 2] | 65% | – | – | – |
| CCOc1ccc(S(=O)(=O)OCC(=O)CCC2CCCCC2)cc1 [Compound 174] | – | – | – | TG (percent triglycerides inhibition), Table 3 ([1]; Table 3, dose not given): 100% |
| CCCC(=O)COS(=O)(=O)c1ccccc1C1OCCO1 [Compound 105] | 55% | > 3000 mg/kg | – | – |
| C=CCCCCCCCCC(=O)COS(=O)(=O)c1c(C)cc(C)cc1C [Compound 88] | 66% | > 4000 mg/kg | – | – |

| Structure (SMILES) | inhibition in vivo at 200 mg/kg [1, 4] | LD50 ([2]; po) | inhibition in vivo at 100 mg/kg [1, 5] | other results |
| --- | --- | --- | --- | --- |
| CCCCCCCCCC(=O)COS(=O)(=O)c1ccc(OCCCC)cc1 [Compound 57] | 52% | > 4000 mg/kg | – | – |
| CCCCC(=O)COS(=O)(=O)c1ccccc1 [Compound 7] | – | – | 98% | inhibition in vivo at 100 mg/kg [3]: 67% |
| CCCCCCCC(=O)COS(=O)(=O)c1c(C)c(C)cc(C)c1C [Compound 91] | 47% | > 3000 mg/kg | – | – |
| CCCCCCCCC(=O)COS(=O)(=O)c1ccc(O)cc1 [Compound 61] | – | > 3000 mg/kg | 67% | – |
| CCCC(=O)COS(=O)(=O)c1cc(Cl)ccc1Cl [Compound 107] | – | > 1500 mg/kg | 75% | – |
| CCCCCCC(=O)COS(=O)(=O)c1ccc(Cl)cc1 [Compound 67] | – | > 2000 mg/kg | 80% | – |
| CCCCCC(=O)COS(=O)(=O)c1ccc(O)cc1 [Compound 60] | – | > 3000 mg/kg | 83% | – |
| CCCC(=O)COS(=O)(=O)c1c(C)c(C)cc(C)c1C [Compound 89] | 56% | > 3000 mg/kg | – | – |
| CCCCC=CCC(=O)COS(=O)(=O)c1c(C)cc(C)cc1C [Compound 87] | 57% | – | – | – |
| CC=CC(=O)COS(=O)(=O)c1ccccc1 [Compound 13] | – | – | 72% | – |
| CCCC(=O)COS(=O)(=O)c1ccc(Cl)cc1O [Compound 109] | 82% | > 2000 mg/kg | – | – |
| CCCC(=O)COS(=O)(=O)c1cc(Cl)c(Cl)cc1Cl [Compound 113] | – | > 1500 mg/kg | 60% | – |
| CCCC(=O)COS(=O)(=O)c1ccc(C)c(Cl)c1 [Compound 108] | – | > 1500 mg/kg | 64% | – |
| CCCC(=O)COS(=O)(=O)c1ccc([N+](=O)[O-])cc1 [Compound 106] | 60% | – | – | – |
| CCCCOc1ccc(S(=O)(=O)OCC(=O)CCC(C)C)cc1 [Compound 58] | 61% | > 4000 mg/kg | – | – |
| Cc1cc(C)c(C)c(S(=O)(=O)OCC(=O)CCCCCCC(C)C)c1C [Compound 94] | 51% | > 3000 mg/kg | – | – |
| CCCC(=O)COS(=O)(=O)c1ccc(NC(C)=O)cc1 [Compound 103] | 51% | > 3000 mg/kg | – | – |
| CCCCCCCCCCC(=O)COS(=O)(=O)c1c(C)c(C)cc(C)c1C [Compound 92] | 43% | – | – | LD50 [2, 6]: > 3000 mg/kg |
| C=CCCC(=O)COS(=O)(=O)c1c(C)c(C)cc(C)c1C [Compound 93] | 60% | > 3000 mg/kg | – | – |
| CCCC(=O)COS(=O)(=O)C1CCCCC1 [Compound 3] | 51% | – | – | – |

| Structure (SMILES) | inhibition in vivo at 200 mg/kg [1, 4] | LD50 ([2]; po) | inhibition in vivo at 100 mg/kg [1, 5] | other results |
| --- | --- | --- | --- | --- |
| CCCCCCCCCCCC(=O)COS(=O)(=O)c1c(C)cc(C)cc1C [Compound 81] | 60% | > 4000 mg/kg | – | – |
| CCCCC(CC)C(=O)COS(=O)(=O)c1c(C)cc(C)cc1C (stereo not drawn) [Compound 84] | – | > 4000 mg/kg | 59% | – |
| Cc1ccccc1S(=O)(=O)OCC(=O)CCCCCCC(C)C [Compound 33] | 67% | > 3000 mg/kg | – | – |
| CCCCCCCCCCC(=O)COS(=O)(=O)c1ccc(C)cc1 [Compound 23] | 64% | > 3000 mg/kg | – | – |
| CCCCCCCCCCCCc1ccc(S(=O)(=O)OCC(=O)CCC)cc1 [Compound 104] | 56% | > 3000 mg/kg | – | – |
| CCCCCCCCCCCCCCC(=O)COS(=O)(=O)c1ccc(C)cc1 [Compound 25] | 62% | > 3000 mg/kg | – | – |
| CCCCCCCCCCCC(=O)COS(=O)(=O)c1ccc(OC)cc1 [Compound 39] | 58% | > 4000 mg/kg | – | – |
| CC(=O)COS(=O)(=O)c1c(C)cc(C)cc1C [Compound 71] | – | – | 60% | inhibition in vivo at 100 mg/kg [3]: 82% |
| C=CCCCCCCCCC(=O)COS(=O)(=O)c1ccc(OC)cc1 [Compound 42] | 57% | > 4000 mg/kg | – | – |
| CCC(C)C(=O)COS(=O)(=O)c1ccc(O)cc1 (stereo not drawn) [Compound 63] | – | > 2000 mg/kg | 76% | – |
| CCCC(=O)COS(=O)(=O)c1cc(Br)ccc1OC [Compound 119] | – | > 2000 mg/kg | 67% | – |
| CCCC(=O)COS(=O)(=O)Cc1ccccc1 [Compound 4] | – | – | 68% | inhibition in vivo at 100 mg/kg [3]: 52% |
| CCCC(=O)COS(=O)(=O)c1ccc(O)c(OC)c1 [Compound 110] | – | – | 70% | – |
| CCCCCCCCCC(=O)COS(=O)(=O)c1ccc(C)cc1 [Compound 22] | 62% | > 3000 mg/kg | – | – |
| CCCCCCCCCC(=O)COS(=O)(=O)c1ccc(Cl)cc1 [Compound 68, 2-oxo-undecyl-p-chlorobenzene sulfonate] | – | – | 62% | LD50 [2, 6]: > 3000 mg/kg |
| Cc1cc(C)c(S(=O)(=O)OCC(=O)CCCCCCC(C)C)c(C)c1 [Compound 85] | – | > 4000 mg/kg | 48% | – |
| CCOc1ccc(S(=O)(=O)OCC(=O)CCC(CC)CC)cc1 [Compound 144] | – | – | – | inhibition in vivo at 200 mg/kg ([1]; Rattus norvegicus, po, 2 h): 55%; LD50 [2, 6]: > 4000 mg/kg |
| CCCCCCCCCCC(=O)COS(=O)(=O)c1ccc(Cl)cc1 [Compound 69] | 77% | > 3000 mg/kg | – | – |
| CCCCCCCCCC(=O)COS(=O)(=O)c1c(C)cc(C)cc1C [Compound 79] | 61% | > 4000 mg/kg | – | – |
